“And” between values parts separate entries of the source, which are not always exact repeats. Identical values can stand only once. Numbers after ± are expanded uncertainties.
What was measured:
[1] = xn = mol fraction of the nth substance listed; details: 101 kPa, Liquid
[2] = 101 kPa, Liquid

CCCCCc1ccc(C2CCC(CCC)CC2)cc1 (configuration not stated) [1-pentyl-4-(4-propylcyclohexyl)-benzene] + Cc1c(C)c2c(c(C)c1O)CCC(C)(CCCC(C)CCCC(C)CCCC(C)C)O2
viscosity [mPa·s], [1]
Details	x2 = 0	x2 = 0.2058	x2 = 0.4023	x2 = 0.6026	x2 = 0.8018
278.15 K	27.74 ± 0.39	75.95 ± 4	384.28 ± 34	1270.6 ± 180	7471.9 ± 1600
284.15 K	21.48 ± 0.31	53.48 ± 0.82	231.6 ± 15	794.38 ± 90	3488.2 ± 610
290.15 K	16.95 ± 0.24	38.25 ± 0.65	145.52 ± 6.8	441.94 ± 40	1669.9 ± 240
296.15 K	13.5 ± 0.19	28.1 ± 0.46	96.37 ± 3	266.41 ± 19	911.16 ± 110
302.15 K	11.09 ± 0.15	21.57 ± 0.34	65.92 ± 1.3	163.27 ± 8.5	485.33 ± 46
308.15 K	9.21 ± 0.13	16.8 ± 0.26	46.14 ± 0.84	106.33 ± 3.8	278.53 ± 20
314.15 K	7.64 ± 0.1	13.17 ± 0.2	33.91 ± 0.58	71.05 ± 1.6	173.09 ± 9.4
320.15 K	6.58 ± 0.09	10.98 ± 0.16	26.01 ± 0.43	51.66 ± 0.86	120.77 ± 4.9
325.15 K	6.01 ± 0.08	9.33 ± 0.14	20.65 ± 0.34	39.36 ± 0.74	82.86 ± 2.4
330.15 K	5.19 ± 0.07	7.98 ± 0.12	16.86 ± 0.27	30.2 ± 0.56	61.04 ± 1.2
335.15 K	4.57 ± 0.06	6.85 ± 0.1	14.03 ± 0.22	24.08 ± 0.43	46.15 ± 0.93
340.15 K	4.13 ± 0.06	6.04 ± 0.09	11.75 ± 0.19	19.47 ± 0.34	35.24 ± 0.7
345.15 K	3.68 ± 0.05	5.37 ± 0.08	9.97 ± 0.16	16.1 ± 0.28	27.32 ± 0.53
350.15 K	3.29 ± 0.05	4.7 ± 0.06	8.55 ± 0.13	13.3 ± 0.21	22.24 ± 0.39

Cc1c(C)c2c(c(C)c1O)CCC(C)(CCCC(C)CCCC(C)CCCC(C)C)O2 (racemic) [dl-α-tocopherol]
[2]
Details	viscosity
278.15 K	37128 ± 10000 mPa·s
284.15 K	15242 ± 3600 mPa·s
290.15 K	6380 ± 1300 mPa·s and 6380.1 ± 1300 mPa·s
296.15 K	3017.5 ± 510 mPa·s
302.15 K	1531 ± 220 mPa·s
308.15 K	814.81 ± 94 mPa·s
314.15 K	454.58 ± 42 mPa·s
320.15 K	283.56 ± 21 mPa·s
325.15 K	187.51 ± 11 mPa·s
330.15 K	129.2 ± 5.7 mPa·s
335.15 K	92.65 ± 3 mPa·s
340.15 K	67.32 ± 1.6 mPa·s
345.15 K	49.98 ± 1.1 mPa·s
350.15 K	37.4 ± 0.85 mPa·s

Cc1cc(C)cc(C)c1 [1,3,5-trimethylbenzene] + Cc1c(C)c2c(c(C)c1O)CCC(C)(CCCC(C)CCCC(C)CCCC(C)C)O2
[1], x2 = 0
Details	viscosity [mPa·s]
278.15 K	0.85 ± 0.02
284.15 K	0.8 ± 0.02
290.15 K	0.75 ± 0.02
296.15 K	0.63 ± 0.02
302.15 K	0.57 ± 0.02
308.15 K	0.53 ± 0.01
314.15 K	0.49 ± 0.01
320.15 K	0.46 ± 0.01
325.15 K	0.44 ± 0.01
330.15 K	0.41 ± 0.01
335.15 K	0.4 ± 0.01
340.15 K	0.39 ± 0.01
345.15 K	0.35 ± 0.01
350.15 K	0.34 ± 0.01

Cc1cc(C)cc(C)c1 [1,3,5-trimethylbenzene]
[2]
Details	viscosity [mPa·s]
278.15 K	0.85 ± 0.03
284.15 K	0.8 ± 0.03
290.15 K	0.75 ± 0.03
296.15 K	0.63 ± 0.03
302.15 K	0.57 ± 0.03
308.15 K	0.53 ± 0.03
314.15 K	0.49 ± 0.03
320.15 K	0.46 ± 0.03
325.15 K	0.44 ± 0.02
330.15 K	0.41 ± 0.02
335.15 K	0.4 ± 0.02
340.15 K	0.39 ± 0.02
345.15 K	0.35 ± 0.02
350.15 K	0.34 ± 0.02

Source: the NIST ThermoML archive (doi:10.1021/je800439e)
